Reference: ChEMBL document CHEMBL3751705, “Synthesis and antituberculosis activity of indole-pyridine derived hydrazides, hydrazide-hydrazones, and thiosemicarbazones” (Bioorg Med Chem Lett, 2016)
≈ marks a conversion by molar mass, not a printed value.

Test system: Mycobacterium tuberculosis
Test: Antituberculosis activity against isoniazid-resistant Mycobacterium tuberculosis CN-40 by microdilution method
Assay type: functional

| SMILES | MIC |
| --- | --- |
| CCOC(=O)c1[nH]c2ccccc2c1/C=N\NC(=O)c1ccncc1 | 2 µg/mL (≈ 5.95 µM) |
| O=C(N/N=C\c1c[nH]c2ccccc12)c1cc[n+]([O-])cc1 | 10 µg/mL (≈ 35.7 µM) |
| NNC(=O)c1cc[n+]([O-])cc1 | > 20 µg/mL |
| CCOC(=O)c1[nH]c2ccc(Cl)cc2c1CNNC(=O)c1ccncc1 | 10 µg/mL (≈ 26.8 µM) |
| CCOC(=O)c1[nH]c2ccccc2c1/C=N\NC(=O)c1cc[n+]([O-])cc1 | 10 µg/mL (≈ 28.4 µM) |
| CCOC(=O)c1[nH]c2ccccc2c1CNNC(=O)c1cc[n+]([O-])cc1 | 10 µg/mL (≈ 28.2 µM) |
| CCOC(=O)c1[nH]c2ccccc2c1CNNC(=O)c1ccncc1 | 10 µg/mL (≈ 29.6 µM) |
| CCOC(=O)c1[nH]c2ccc(C)cc2c1/C=N\NC(=O)c1ccncc1 | 2 µg/mL (≈ 5.71 µM) |
| CC(=O)n1cc(NNC(=O)c2ccc[n+]([O-])c2)c2ccccc21 | 10 µg/mL (≈ 32.2 µM) |
| O=C(NNCc1c[nH]c2ccccc12)c1ccncc1 | 10 µg/mL (≈ 37.6 µM) |
| NNC(=O)c1ccc[n+]([O-])c1 | > 20 µg/mL |
| CCOC(=O)c1[nH]c2ccc(C)cc2c1CNNC(=O)c1ccncc1 | 10 µg/mL (≈ 28.4 µM) |
| Cc1ccc2[nH]c(C(=O)O)c(/C=N\NC(=O)c3ccncc3)c2c1 | 4 µg/mL (≈ 12.4 µM) |
| CC(=O)n1cc(NNC(=O)c2cc[n+]([O-])cc2)c2ccccc21 | 10 µg/mL (≈ 32.2 µM) |
| CC(=O)n1cc(NNC(=O)c2ccncc2)c2ccccc21 | 2 µg/mL (≈ 6.8 µM) |
| O=C(N/N=C\c1c[nH]c2ccccc12)c1ccncc1 | 10 µg/mL (≈ 37.8 µM) |
| NNC(=O)c1ccncc1 [ISONIAZID] | 20 µg/mL (≈ 146 µM) |
| CCOC(=O)c1[nH]c2ccc(Cl)cc2c1/C=N\NC(=O)c1ccncc1 | 2 µg/mL (≈ 5.39 µM) |
| NNC(=O)c1cccnc1 [NICOTINIC ACID HYDRAZIDE] | > 20 µg/mL |
| CCOC(=O)c1[nH]c2ccc(C)cc2c1/C=N/NC(N)=S | 2 µg/mL (≈ 6.57 µM) |
